# From US20250171776A1, “NON-CANONICAL CELL-PENETRATING PEPTIDES FOR ANTISENSE OLIGOMER DELIVERY” (priority 2023, published 2025)
# Where no end group is shown, it is not given here. [ ]: non-standard residue; d: D form. Api = NC1(C(=O)O)CCNCC1; Dab = NCC[C@H](N)C(=O)O; Iph = iodophenylalanine
# Tested on: HELA-654 cells
# Test: Hela-654 eGFP assay (incucyte imaging, GFP positive cells, 72 h)
# Format: cell-based
# Conditions: 72 h, read-out: EC50 (at 72 h)
# Procedure: HELA-654 cells were imaged at 72 hours with an incucyte and the number of GFP positive cells versus total cell counts were calculated with the incucyte image analysis software. Statistical analysis was conducted using a one-way analysis of variance (ANOVA) test with Dunnett's multiple comparison test. Bars represent mean±standard deviation (SD), with P<0.05 was considered to indicate statistical significance, (**** p<0.0001, *** […], ** p<0.01, * p<0.05).
# HELA-654 cells were imaged at 72 hours with an incucyte and the number of GFP positive cells versus total cell counts were calculated with the incucyte image analysis software.
row,Substance,EC50 [µM]
1,GCTATTACCTTAACCCAG (all phosphorodiamidate morpholino (PMO)) [reference compound],22.7
2,Dab-Pro-Arg-Dab-Leu-His-Ser-Dab-Ala-Thr-Lys-Trp-Lys-Lys ([Dab]PR[Dab]LHS[Dab]ATKWKK; also: PMO conjugate) [PMO-CXP5],10

# Same assay, conditions: CXP1 Dab analogs, 72 h, read-out: EC50 (at 72 h)
row,Substance,EC50 [µM]
1,Dab-Gln-Dab-Thr-Ser-Iph-Gly-Dab-Gly-Dab-Dab-Trp-Dab-Dab-Lys-Trp-Lys-Lys [PMO-CXP1AF],5.73

# Same assay, conditions: CXP1 analogs (unnatural amino acids replaced), 72 h, read-out: EC50 (72 h)
row,Substance,EC50 [µM]
1,Lys-Gln-Lys-Thr-Ser-Iph-Gly-Lys-Gly-Pip-Lys-Trp-Lys-Lys (KQKTS[Iph]GKG[Api]KWKK; not fully specified (C-terminus); printed as Lys-Gln-Lys-Thr-Ser-Iph-Gly-Lys-Gly-Pip-Lys-Trp-Lys-Lys; also: PMO conjugate) [PMO-CXP1AA],13.1
2,Lys-Gln-Lys-Thr-Ser-Iph-Gly-Arg-Gly-Lys-Lys-Trp-Lys-Lys (KQKTS[Iph]GRGKKWKK; also: PMO conjugate) [PMO-CXP1Y],14.4
3,Lys-Gln-Lys-Thr-Ser-Phe-Gly-Arg-Gly-Lys-Lys-Trp-Lys-Lys (KQKTSFGRGKKWKK; also: PMO conjugate) [PMO-CXP1Z],21.1

# Same assay, conditions: Iph scan, 30 μM of compound, 72 hours
row,Substance,Percentage of GFP Positive Cells at 72 hours (30 μM) [%]
1,Lys-Gln-Lys-Thr-Ser-Iph-Gly-Arg-Gly-Pip-Iph-Trp-Lys-Lys (KQKTS[Iph]GRG[Api][Iph]WKK; also: PMO conjugate) [PMO-CXP1U],66.4
2,Lys-Gln-Lys-Thr-Ser-Iph-Gly-Arg-Gly-Pip-Lys-Trp-Lys-Iph-Lys-Trp-Lys-Lys (KQKTS[Iph]GRG[Api]KWK[Iph]KWKK; not fully specified (C-terminus); printed as Lys-Gln-Lys-Thr-Ser-Iph-Gly-Arg-Gly-Pip-Lys-Trp-Lys-Iph-Lys-Trp-Lys-Lys; also: PMO conjugate) [PMO-CXP1W],94.11
3,Iph-Gln-Lys-Thr-Ser-Iph-Gly-Arg-Gly-Pip-Lys-Trp-Lys-Lys ([Iph]QKTS[Iph]GRG[Api]KWKK; also: PMO conjugate) [PMO-CXP1Q],85
4,Lys-Gln-Lys-Thr-Ser-Iph-Gly-Arg-Gly-Pip-Lys-Trp-Iph-Lys [PMO-CXP1V],86.4
5,Lys-Gln-Iph-Thr-Ser-Iph-Gly-Arg-Gly-Pip-Lys-Trp-Lys-Lys (KQ[Iph]TS[Iph]GRG[Api]KWKK; also: PMO conjugate) [PMO-CXP1R],87.6
6,Lys-Gln-Lys-Thr-Ser-Iph-Gly-Arg-Gly-Iph-Lys-Trp-Lys-Lys (KQKTS[Iph]GRG[Iph]KWKK; also: PMO conjugate) [PMO-CXP1T],36.5

# Same assay, conditions: alanine scan, 20 μM of PPMO, 72 hours
row,Substance,Percentage of GFP Positive Cells at 72 hours (20 μM) [%]
1,Lys-Gln-Lys-Thr-Ser-Ala-Gly-Arg-Gly-Pip-Lys-Trp-Lys-Lys (KQKTSAGRG[Api]KWKK; also: PMO conjugate) [PMO-CXP1G],55.8
2,Lys-Gln-Lys-Thr-Ser-Iph-Gly-Arg-Gly-Pip-Ala-Trp-Lys-Lys (KQKTS[Iph]GRG[Api]AWKK; also: PMO conjugate) [PMO-CXP1L],41.8
3,Lys-Gln-Lys-Thr-Ser-Iph-Gly-Arg-Ala-Pip-Lys-Trp-Lys-Lys (KQKTS[Iph]GRA[Api]KWKK; also: PMO conjugate) [PMO-CXP1J],53.2
4,Lys-Gln-Lys-Thr-Ser-Iph-Gly-Arg-Gly-Pip-Lys-Trp-Lys-Ala-Lys-Trp-Lys-Lys (KQKTS[Iph]GRG[Api]KWKAKWKK; not fully specified (C-terminus); printed as Lys-Gln-Lys-Thr-Ser-Iph-Gly-Arg-Gly-Pip-Lys-Trp-Lys-Ala-Lys-Trp-Lys-Lys; also: PMO conjugate) [PMO-CXP1O],39.2
5,Lys-Gln-Lys-Thr-Ala-Iph-Gly-Arg-Gly-Pip-Lys-Trp-Lys-Lys (KQKTA[Iph]GRG[Api]KWKK; also: PMO conjugate) [PMO-CXP1F],65.5
6,Lys-Gln-Lys-Thr-Ser-Iph-Ala-Arg-Ala-Pip-Lys-Trp-Lys-Lys (KQKTS[Iph]ARA[Api]KWKK; also: PMO conjugate) [PMO-CXP1P],41.6
7,Lys-Gln-Lys-Ala-Ser-Iph-Gly-Arg-Gly-Pip-Lys-Trp-Lys-Lys (KQKAS[Iph]GRG[Api]KWKK; also: PMO conjugate) [PMO-CXP1E],70.5
8,Lys-Gln-Lys-Thr-Ser-Iph-Gly-Arg-Gly-Pip-Lys-Ala-Lys-Lys (KQKTS[Iph]GRG[Api]KAKK; also: PMO conjugate) [PMO-CXP1M],51.0
9,Lys-Gln-Ala-Thr-Ser-Iph-Gly-Arg-Gly-Pip-Lys-Trp-Lys-Lys (KQATS[Iph]GRG[Api]KWKK; also: PMO conjugate) [PMO-CXP1D],48.2
10,Ala-Gln-Lys-Thr-Ser-Iph-Gly-Arg-Gly-Pip-Lys-Trp-Lys-Lys (AQKTS[Iph]GRG[Api]KWKK; also: PMO conjugate) [PMO-CXP1B],50.5
11,Lys-Gln-Lys-Thr-Ser-Iph-Gly-Ala-Gly-Pip-Lys-Trp-Lys-Lys (KQKTS[Iph]GAG[Api]KWKK; also: PMO conjugate) [PMO-CXP1I],42.0
12,Lys-Gln-Lys-Thr-Ser-Iph-Ala-Arg-Gly-Pip-Lys-Trp-Lys-Lys (KQKTS[Iph]ARG[Api]KWKK; also: PMO conjugate) [PMO-CXP1H],65.5
13,Lys-Ala-Lys-Thr-Ser-Iph-Gly-Arg-Gly-Pip-Lys-Trp-Lys-Lys (KAKTS[Iph]GRG[Api]KWKK; also: PMO conjugate) [PMO-CXP1C],50.0
14,Lys-Gln-Lys-Thr-Ser-Iph-Gly-Arg-Gly-Ala-Lys-Trp-Lys-Lys (KQKTS[Iph]GRGAKWKK; also: PMO conjugate) [PMO-CXP1K],39.3

# Same assay, conditions: chimeric peptide PMO conjugates, 72 h, read-out: EC50 (at 72 h)
row,Substance,EC50 [µM]
1,"Lys-Trp-Lys-Lys-Gln-Lys-Thr-Ser-Iph-Gly-Arg-Gly-Pip-Lys-Trp-Lys-Lys (KWKKQKTS[Iph]GRG[Api]KWKK; not fully specified (N-terminus, C-terminus); printed as Lys-Trp-Lys-Lys-Gln-Lys-Thr-Ser-Iph-Gly-Arg-Gly-Pip-Lys-Trp-Lys-Lys; also: PMO conjugate) [SD-CXP1]",2.28
2,Lys-Gln-Lys-Thr-Ser-Iph-Gly-Arg-Gly-Pip-Lys-Trp-Lys-Lys-Gly-Lys-Gln-Lys-Thr-Ser-Iph-Gly-Arg-Gly-Pip-Lys-Trp-Lys-Lys (KQKTS[Iph]GRG[Api]KWKKGKQKTS[Iph]GRG[Api]KWKK; not fully specified (C-terminus); printed as Lys-Gln-Lys-Thr-Ser-Iph-Gly-Arg-Gly-Pip-Lys-Trp-Lys-Lys-Gly-Lys-Gln-Lys-Thr-Ser-Iph-Gly-Arg-Gly-Pip-Lys-Trp-Lys-Lys; also: PMO IVS2-654 conjugate) [PMO-CXP1-CXP1],1.07
3,Lys-Gln-Lys-Thr-Ser-Lys-Gln-Lys-Thr-Ser-Iph-Gly-Arg-Gly-Pip-Lys-Trp-Lys-Lys (KQKTSKQKTS[Iph]GRG[Api]KWKK; not fully specified (C-terminus); printed as Lys-Gln-Lys-Thr-Ser-Lys-Gln-Lys-Thr-Ser-Iph-Gly-Arg-Gly-Pip-Lys-Trp-Lys-Lys; also: PMO conjugate) [SC-CXP1],4.01
